Experimental data from ChEMBL document CHEMBL3507680, “University of Dundee, Gates Library screen for HepG2 cell viability”.

Assay: Human HepG2 cell viability assay in 384 well format
Assay type: toxicity, cell-based
Set-up: dose 125 nL, time 70.5 hour; cytotoxicity at 70.5 h: concentration not given beside the values
Settings: HepG2 cells, read-out: Inhibition

Row | Structure (SMILES) | cytotoxicity at 70.5 h [%]
1 | COCCN1C(=O)CC[C@@H]2[C@@H]1CCN2S(=O)(=O)C1CC1 | -3.21
2 | CCS(=O)(=O)N1CC[C@@H]2[C@H]1CCC(=O)N2CCOC | -3.05
3 | CCOCC(=O)N1C[C@@H]2COC[C@]2(c2nc(C)no2)C1 | -7.6
4 | Cc1cc(CN2CC[C@@H]3O[C@@H](c4nnc(C)o4)C[C@H]3C2)no1 | -3.3
5 | COc1cc(N2CC[C@@H]3OCCN(C)[C@H]3CC2)ncn1 | -5.78
6 | COCCN1CC[C@@H]2OC[C@H](C(=O)N(C)Cc3ccccn3)C[C@@H]2C1 | -3.83
7 | COC1COC2(CCN(C(=O)c3ccccc3F)CC2)C1 (stereo not given) | -4.84
8 | Cn1c2c(ccc1=O)CC(NC(=O)c1ccsc1)CC2 (stereo not given) | -2.29
9 | COc1cccc(CC(=O)N2CC[C@@H]3CN(C)S(=O)(=O)[C@@H]3CC2)c1 | -3.48
10 | Cc1cccc(CN2CC[C@@H]3O[C@@H](C(=O)N4CCN(C)CC4)C[C@@H]32)n1 | -1.64
11 | COCCNC(=O)C[C@@H]1COC[C@H]2CN(Cc3cccnc3)C[C@@H]12 | -0.897
12 | COCCC(=O)N1C[C@H]2CCC[C@@]2(COC)C1 | -6.36
13 | Cc1cccc(CN2CC[C@@H]3O[C@@H](C(=O)N4CCN(C)CC4)C[C@@H]32)c1 | -6.66
14 | CCn1nc(C)cc1C(=O)N1C[C@@H]2C[C@@H](c3noc(C)n3)O[C@@H]2C1 | -6.34
15 | c1c(CN2CCOCC2)nc2n1CCN(C1CCOCC1)C2 | -1.69
16 | CC(C)CNC(=O)C1=NOC2(CCN(Cc3cccc(C#N)c3)C2)C1 (stereo not given) | -1.8
17 | c1ccc(C[C@H]2CN(Cc3nccs3)CC[C@H]2OCC2CC2)cc1 | -11.5
18 | COCCn1c2c(ccc1=O)CC(NS(C)(=O)=O)CC2 (stereo not given) | 16
19 | CC(C)Nc1nc(N2CCOCC2)nc2c1CN(CC(=O)N(C)C)CC2 | 26.3
20 | O=C(N1CCCC1)N1CCN(CC2CC2)c2ncccc2C1 | 6.34
21 | c1ccc(OC[C@H]2CCC[C@]23CN(Cc2nccs2)CCO3)nc1 | -4.23
22 | CC(=O)N1CCn2cc(CNC(=O)c3cccn3C)nc2C1 | -10.7
23 | CCOC[C@@H]1CCC[C@@]12CN(Cc1nccs1)CCO2 | 0.476
24 | COCCC1COC2(CCN(C(=O)c3ccco3)CC2)C1 (stereo not given) | -5.74
25 | CC(C)Oc1ncnc2c1CCN(C(=O)c1cccn1C)CC2 | 7.42
26 | CC(=O)N1CCC2(CCCN(C(=O)c3ccccc3)C2)C1 (stereo not given) | 6.68
27 | O=C(N1CCCC1)N1CCc2ncnc(C3CCOC3)c2CC1 (stereo not given) | -9.08

Row | Structure (SMILES) | cytotoxicity at 70.5 h [%]
28 | COCCC(=O)N1CCC2(COCc3c(C)nc(NCC4CC4)nc32)C1 (stereo not given) | -4.97
29 | O=C(CC1CC1)N1CCC2(CC1)CN(c1ncccn1)CCO2 | -7.66
30 | Cc1ncsc1CN1CC[C@H]2C(=O)N(c3ccccc3)CCO[C@H]2C1 | -9.01
31 | CS(=O)(=O)NCc1cn2c(n1)CN(C(=O)c1ccc[nH]1)CC2 | -9.01
32 | CN(Cc1ccccn1)C1COC2(CCN(Cc3cccnc3)CC2)C1 (stereo not given) | 24.4
33 | COc1ccc(C(=O)N2Cc3c(Cn4ccnc4)nn(C)c3C2)cc1 | -8.74
34 | O=C1[C@@H]2CCN(Cc3ccncc3)C[C@@H]2OCCN1c1ccccc1 | -8.52
35 | Cc1occc1C(=O)N1CCC2(CC1)C(c1cnn(C)c1)CC(=O)N2C (stereo not given) | 4.52
36 | C[C@H]1C[C@@H]2CCN(Cc3ccccn3)C[C@H]2O1 | -0.0314
37 | c1cnc(N2CCCC3(CCN(Cc4ccncc4)C3)C2)nc1 (stereo not given) | -13.2
38 | O=C(c1cscn1)N1CCC2(CCN(Cc3nccs3)C2)CC1 | -12.2
39 | Cc1ccc(CN2CC[C@H]3OCC[C@@H](c4nc(C)no4)[C@H]3C2)cc1 | -11.4
40 | O=C(c1ccnnc1)N1C[C@H]2CCC[C@@]2(COCC2CCOCC2)C1 | -13
41 | CCOCC1CN(C(=O)C2=CCCC2)Cc2cnn(CC)c21 (stereo not given) | -16.7
42 | Cc1occc1C(=O)N1CCC2(CC1)NC(=O)CC2c1cnn(C)c1 (stereo not given) | -10.3
43 | CC(C)NC(=O)C1CN(C(=O)Nc2ccccc2)CC12CCOCC2 (stereo not given) | 22
44 | CCOCC1CN(Cc2cnn(C)c2)Cc2ncn(CC3CC3)c21 (stereo not given) | 23.1
45 | CCCNC(=O)c1cc2c(c3ccccc3n2C)n1C(=O)N(C)C | -5.66
46 | CS(=O)(=O)NCc1ncn2c1CN(C(=O)CC1CCCC1)CCC2 | -5.42
47 | Cc1ncccc1NC(=O)C1=NOC2(CCN(Cc3nccs3)C2)C1 (stereo not given) | -11.1
48 | CC(C)c1nccn1C(C)C(=O)NCc1noc(Cc2cccs2)n1 (stereo not given) | 21.9
49 | Cc1ccc2[nH]c(-c3cn(C4CCNCC4)nn3)nc2c1C | -3.44
50 | CCN(Cc1cccc(C(=O)Nc2c(C)cnn2C)c1)[C@H]1COC[C@@H]1O | -2.17
51 | Cc1cccc(CN2CCC(Cc3ccccc3F)CC2)n1 | 0.263
52 | O=C1CCCCN1CCCC(=O)N1CCC2(CC1)[C@H](O)C[C@@H]2O | -4.17
53 | COc1ccccc1[C@@H]1CN(C(=O)Cc2csc(C)n2)C[C@H]1C(=O)O | 12.8
54 | CCO[C@H]1CN(C)C[C@@H]1NC(=O)c1cc(C)nc2c(C)cccc12 | -8.5

Row | Structure (SMILES) | cytotoxicity at 70.5 h [%]
55 | CN1CCN(C[C@H]2CC[C@@H](Cc3ccc4c(c3)OCO4)O2)CC1 | -6.19
56 | CCSc1ccc(C(=O)N2CC[C@](O)(CC)[C@H](O)C2)s1 | 22.5
57 | CCCc1nc(NC2(COC)CCCC2)c2cnn(C)c2n1 | -4.69
58 | COCC1(C(=O)N[C@H]2CN(c3noc(C)n3)C[C@@H]2C2CC2)CCC1 | -1.28
59 | c1cc(-c2nc3c(c(NCCn4ccnn4)n2)CCNCC3)ccn1 | 0.89
60 | CCc1ccc2nc(C)cc(C(=O)NC3CCNC3=O)c2c1 (stereo not given) | 0.829
61 | Cc1cc(=O)c2ccccc2n1CC1CCNC1 (stereo not given) | -1.77
62 | NC(=O)c1cc2c(nc1Oc1ccccc1CN1CCCCC1)CCC2 | -15
63 | CCN(CCn1cccn1)Cc1nc(-c2cc(F)ccc2F)oc1C | -11.2
64 | O=C(c1cscn1)N1CCCCC1c1nc2cc(F)ccc2[nH]1 (stereo not given) | -1.08
65 | CC(C)C(=O)N1CCCC2(C1)CN(c1nncs1)CCO2 (stereo not given) | -2.65
66 | COCCN1CCCCC12CC(=O)N(c1cccc(C#N)c1)C2 (stereo not given) | -4.04
67 | Cn1cncc1CN1CCC2(CC1)COCCN(S(C)(=O)=O)C2 | -8.74
68 | CCC(=O)N1CCC2(CC1)C(=O)N(C)CCN2Cc1csc(C)n1 | -4.08
69 | O=C([C@H]1CC[C@@H]2[C@@H](CCN2C2CCCC2)O1)N1CCOCC1 | -12.8
70 | c1csc(CN2CCn3c(Cn4cncn4)cnc3C2)n1 | -17.2
71 | COCCC(=O)N1CC2(CCN(Cc3cccc(Cl)c3)CC2)C1 | -8.68
72 | O=C(N1CCCC1)N1CCO[C@H]2[C@@H](Oc3ccccn3)CC[C@@H]21 | -6.73
73 | Cc1ccc(CN2CCCC3(CCN(S(C)(=O)=O)C3)C2)o1 (stereo not given) | -10.2
74 | Cn1nnc2c1CCN(Cc1nccs1)C2COCc1ccccc1 (stereo not given) | -2.36
75 | O=C(C1=CCCC1)N1CCO[C@H]2[C@@H](Oc3ccccn3)CC[C@@H]21 | -0.715
76 | Cn1cc(C[C@H]2[C@H](N3CCOCC3)CCN2C(=O)c2ccco2)cn1 | 5.32
77 | O=C(c1ccc[nH]1)N1CCn2cc(CN3CCCC3)nc2C1 | -8.96
78 | O=C(c1cccnc1)N1CCc2ncnc(C3CCOC3)c2CC1 (stereo not given) | -7.71
79 | Cc1cc(CN2CC[C@H]3C(=O)N(c4ccccc4)CCO[C@H]3C2)no1 | 23.6
80 | O=C(c1cccc(Cl)c1)N1CC[C@H]2[C@H]1CCN2CC1CCOCC1 | -8.99
81 | COc1ccc(CN2CC[C@H]3[C@H]2CCN3C(=O)c2cnn(C)c2)cc1 | -0.0414

Row | Structure (SMILES) | cytotoxicity at 70.5 h [%]
82 | NC(=O)N1C[C@H]2CN(Cc3nccs3)C[C@H]2C1 | -18.2
83 | O=C1[C@H]2CN(CC3CC3)C[C@H]2CN1Cc1cccc(F)c1 | -7.25
84 | CN(C)c1ncnc2c1CCN(CC1CCOC1)CC2 (stereo not given) | -14.4
85 | Cn1ccnc1CN1CCC2(CC(=O)N(c3cncnc3)C2)C1 (stereo not given) | -14.3
86 | Cn1cc(C(=O)N2CC[C@@H]3[C@@H]2CCN3Cc2cccc(F)c2)cn1 | -6.38
87 | CS(=O)(=O)N[C@@H]1CN(C(=O)c2ccccn2)[C@@H]2CCCO[C@@H]21 | -5.15
88 | COC[C@]12COC[C@H]1CN(Cc1cc(OC)cc(OC)c1)C2 | -10.3
89 | CCc1cnc(N2CC3(CCN(Cc4ccsc4)C3)C2)nc1 | 18.4
90 | CCOCC1CN(Cc2cnn(C)c2)Cc2nn(C)cc21 (stereo not given) | 2.42
91 | CC(C)N1CCO[C@H]2CN(C(=O)c3ccoc3)C[C@H]21 | -4.51
92 | O=C(C[C@@H]1COC[C@H]2CN(C3CCC3)C[C@@H]12)NCc1cccnc1 | -16.6
93 | C[C@H]1CN(c2ccccn2)C[C@@]12CCN(c1cccnc1)C2=O | -2.67
94 | CC(C)N1CC[C@H]2[C@H](C[C@@H](Cn3cncn3)N2c2nccs2)C1 | -6.46
95 | c1ccc(CN2CC[C@@H]3O[C@@H](COCC4CCOCC4)CC[C@@H]32)nc1 | -14.4
96 | O=C(NC1CCCC1)[C@@H]1CN(Cc2nccs2)C[C@H]2OCC[C@H]21 | 33.7
97 | Fc1cnc(N2CCCC3(CN(Cc4ccncc4)CCO3)C2)nc1 (stereo not given) | -6.32
98 | O=C(NC[C@]12COC[C@H]1CN(Cc1ccncc1)C2)c1ccco1 | -10.9
99 | Cn1cc(N2CCC3(CCN(Cc4cccnc4)C3)C2=O)cn1 (stereo not given) | -17.1
100 | COc1cc(N2C[C@@H]3COC[C@]3(COc3cccnc3)C2)ncn1 | -5
101 | Fc1cnc(N2CCOC3(CCN(Cc4ccsc4)CC3)C2)nc1 | 8.85
102 | CCN1CCO[C@]2(CCC[C@H]2COCc2csc(C)n2)C1 | -7.19
103 | Cc1nc(CN2CCC3(CC2)C(=O)N(C)CCN3C)cs1 | -4.7
104 | Fc1cccc(N2CCCC3(CN(Cc4ccncc4)CCO3)C2)c1 (stereo not given) | -4.69
105 | Cc1nc(CN2CCN(Cc3ccoc3)Cc3cccnc32)cs1 | 32.4
